According to paper PMC10305181, “A VEGFB-Based Peptidomimetic Inhibits VEGFR2-Mediated PI3K/Akt/mTOR and PLCγ/ERK Signaling and Elicits Apoptotic, Antiangiogenic, and Antitumor Activities” (Pharmaceuticals, 2023):
Bridge positions count the residues as written; N and C are the ends. Peptide text beside a SMILES is read from it.

Columns and labels:
HUVECs = assay: Annexin V/PI flow cytometry, HUVECs; assay type: cell-based, human; details: 0.40 μM, 24 h, VEGF 20 ng·mL^−1; control 9.61; n = 3; p < 0.0001; in % (unit assumed)
Experimental: An important consequence of VEGF signals is cell survival dominantly via PI3K/AKT/mTOR pathway. Thus, inhibition of VEGF signals leads to the induction of apoptosis. Accordingly, the ability of C-VGB3 to induce apoptosis was investigated. First, apoptotic endothelial and tumor cells were analyzed by flow cytometry after staining with annexin V-FITC and PI. (Figure 6A). Treatment with C-VGB3 (0.40 μM) induced significant apoptosis in both cell lines compared to the controls. […] Apoptosis induction by C-VGB3 was further characterized by the TUNEL assay, as an indicator of late apoptosis, with a confocal microscope (Figure 6B).
Annexin V/Propidium Iodide flow cytometry was performed to investigate the C-VGB3 effect on apoptosis induction, as previously described, with some modifications. […]

[1] = system: signaling proteins in 4T1 MCT cells; assay: Western blot analysis, 4T1 cells; assay type: cell-based, murine
Experimental: Next, VEGFR2 signaling was investigated in 4T1 MCTs. […] Considering the implication of the PI3K/AKT/mTOR signaling pathway in most human cancers, the effect of C-VGB3 on this pathway was evaluated in 4T1 MCT cells. […] The NF-κB pathway is an important target of AKT, which contributes to abnormal cell proliferation and differentiation, the inhibition of apoptosis, enhanced metastasis, and treatment resistance. Therefore, the inhibition of upstream AKT signaling would be expected to downregulate NF-κB and/or p-NF-κB.
The levels of signaling proteins were investigated by the Western blot assay. 4T1 and HUVE cells stimulated by VEGF (20 ng·mL^−1) were treated with (0.40 μM) or without C-VGB3 (treatment and control groups, respectively) after starvation in a serum-free medium for 24 h. After washing with PBS buffer twice, the cells were treated with RIPA lysis buffer containing (Sigma, St. Louis, MO, USA). Bradford′s test was performed to estimate the protein concentration. Equal amounts of total protein were electrophoresed on a 10% SDS-polyacrylamide gel, separated, and then transferred to a nitrocellulose membrane. Nitrocellulose was soaked in a blocking buffer containing 5% dry milk, Tris-buffered saline, and Tween 20 (TBST) for 1 h at ambient temperature. The nitrocellulose membrane was then washed with wash buffer and treated with antibodies against VEGFR2 p-VEGFR2, AKT, p-AKT, PI3K, mTOR, p-mTOR, NF-κB, p-NFκB, P53, MDM2, Bax, Bcl2, Bid, Bim, Apaf-1, cytochrome c, caspase-9, Fas (CD95), DR4 (CD261), DR5 (CD262), caspase3, caspase7, caspase8, PARP1, ERK 1/2, p-ERK1/2, Ras, Raf, Cdk4, GSK-3β, cyclin D1, vimentin, N-cadherin, E-cadherin, FAK, p-FAK, paxillin, p-paxillin, and β-actin overnight at 4 °C. The next steps were performed as described previously. Because molecular weight ranges of target signaling proteins are very close, individual gels were run for separate signaling proteins (Figure S7).

[2] = system: extracellular domain of VEGFR2 (KDR); assay: ELISA-based displacement (competition binding) of biotinylated VEGF from VEGFR2; details: ELISA, n = 3
Experimental: Figure 3 The binding affinity of C-VGB3 to VEGFR2. (A) ELISA-based displacement assay. The gradient concentrations of C-VGB3 (0, 0.316, 1, 3.16, 10, 31.6, 100, and 316 μM) were used in the assay. […] Error bars denote ± SEM. n = 3; ** p = 0.001, *** p = 0.0001, **** p < 0.0001, ns = not significant; one-way ANOVA. (B) A three-dimensional (produced by UCSF chimera software version 1.12) and a two-dimensional representation (produced by LigPlot software) of interactions in the C-VGB3/VEGFR2 complex is shown on the left and the right, respectively.
A displacement assay was conducted as reported previously with some modifications, including using 20 ng of the VEGFR2 extracellular domains (R&D Systems, Minneapolis, MN, USA). Peptide compounds were assayed three times per experiment.
Figure S6. Evaluating the binding capability of L-VGB3 to VEGFR2
(A) ELISA-based displacement assay. The gradient concentrations of L-VGB3 (3.16, 10, […]
to the extracellular domain of VEGFR2 at applied concentrations. (B) Two-dimensional representation of interactions (produced by LigPlot software) in L-VGB3/VEGFR2 […]

`CC(C)C[C@@H]1NC(=O)CNC(=O)[C@H](CC(=O)O)NC(=O)[C@H](CC(=O)O)NC(=O)[C@@H]2CCCN2C(=O)[C@@H]2CCCN2C(=O)[C@H](CCCNC(=N)N)NC(=O)[C@@H](NC(=O)[C@@H](N)CCC(=O)O)CSSC[C@@H](C(=O)O)NC1=O` [C-VGB3] (H-ECRPPDDGLC-OH; disulfide 2-10) was tested. Which “level of apoptotic cells” value (HUVECs) did it give?
The value was 56.62.

And the “increase in cleaved PARP1” value ([1]; 4T1 (second of 'respectively'), 0.40 μM, p < 0.0001)?
Its value is 4.05 fold.

What about the Fas expression ([1]; 4T1, 0.40 μM) of the same molecule?
The Fas expression was “not affected”.

What about the “increase in Bax/Bcl2 ratio” value ([1]; 4T1, 0.40 μM) of the same molecule?
The value was ~5.25 fold.

What about the “increased level of cleaved caspase-3” value ([1]; 4T1, 0.40 μM) of the same molecule?
Its value is 4.0 times.

And the “increased level of cleaved caspase-7” value ([1]; 4T1, 0.40 μM)?
The value was 4.1 times.

And the “increased level of cleaved caspase-9” value ([1]; 4T1, 0.40 μM)?
The value was 3.5 times.

And the Bax level ([1]; 4T1, 0.40 μM, p < 0.0001)?
The Bax level was “increased”.

And the DR4 level ([1]; 4T1, 0.40 μM, p < 0.0001)?
Its DR4 level is “increase”.

What about the MDM2 level ([1]; 4T1, 0.40 μM, p < 0.0001) of the same molecule?
The MDM2 level was “markedly decreased”.

What about the P53 level ([1]; 4T1, 0.40 μM, p < 0.0001) of the same molecule?
The P53 level was “enormously increased”.

What about the VEGFR2 level ([1]; 4T1, 0.40 μM, p < 0.0001) of the same molecule?
The VEGFR2 level was “suppressed”.

What about the paxillin ([1]; 4T1, 0.40 μM, p < 0.0001) of the same molecule?
The paxillin was “substantially inhibited”.

And the p-VEGFR2 level ([1]; 4T1, 0.40 μM, p = 0.0001)?
Its p-VEGFR2 level is “suppressed”.

What about the p-paxillin ([1]; 4T1, 0.40 μM, p = 0.0001) of the same molecule?
The p-paxillin was “substantially inhibited”.

And the Apaf-1 ([1]; 4T1, 0.40 μM, p = 0.001)?
Its Apaf-1 is “promoted”.

What about the Bcl2 expression ([1]; 4T1, 0.40 μM, p = 0.001) of the same molecule?
The Bcl2 expression was “decrease”.

What about the Bid expression level ([1]; 4T1, 0.40 μM, p = 0.001) of the same molecule?
The Bid expression level was “increased”.

And the DR5 level ([1]; 4T1, 0.40 μM, p = 0.001)?
The DR5 level was “increase”.

And the E-cadherin expression ([1]; 4T1, 0.40 μM, p = 0.001)?
Its E-cadherin expression is “potently increased”.

What about the FAK ([1]; 4T1, 0.40 μM, p = 0.001) of the same molecule?
The FAK was “substantially inhibited”.

And the N-cadherin level ([1]; 4T1, 0.40 μM, p = 0.001)?
The N-cadherin level was “reduced”.

What about the p-AKT level ([1]; 4T1, 0.40 μM, p = 0.001) of the same molecule?
The p-AKT level was “significantly decreased”.

And the p-FAK ([1]; 4T1, 0.40 μM, p = 0.001)?
Its p-FAK is “substantially inhibited”.

And the p-mTOR level ([1]; 4T1, 0.40 μM, p = 0.001)?
Its p-mTOR level is “significantly decreased”.

What about the Bim level ([1]; 4T1, 0.40 μM, p = 0.02) of the same molecule?
Its Bim level is “increased”.

And the NF-κB level ([1]; 4T1, 0.40 μM, p = 0.02)?
Its NF-κB level is “decreased levels”.

What about the PI3K level ([1]; 4T1, 0.40 μM, p = 0.02) of the same molecule?
Its PI3K level is “significantly decreased”.

And the cytochrome c release ([1]; 4T1, 0.40 μM, p = 0.02)?
The cytochrome c release was “promoted”.

And the mTOR level ([1]; 4T1, 0.40 μM, p = 0.02)?
Its mTOR level is “significantly decreased”.

And the p-NF-κB level ([1]; 4T1, 0.40 μM, p = 0.02)?
The p-NF-κB level was “decreased levels”.

And the vimentin level ([1]; 4T1, 0.40 μM, p = 0.02)?
The vimentin level was “reduced”.

And the “inhibition of binding of bt-VEGF to KDR” value ([2]; 0-316 μM)?
The value was “inhibits the binding of biotinylated VEGF (bt-VEGF) to KDR dose-dependently”.

And the “displacement of btVEGF165” value ([2]; 100 μM, ectodomain of VEGFR2)?
Its value is 58%.
